{
  "source": "patent US20210213063A1",
  "about": "“COMBINATION THERAPY WITH CHIMERIC ANTIGEN RECEPTOR (CAR) THERAPIES” (Novartis AG, priority 2018, published 2021)",
  "key": {"MCL": {"tested_on": "MCL", "conditions": "ibrutinib added to CART19 therapy"}, "[1]": {"tested_on": "relapsed/refractory diffuse large B-cell lymphoma (DLBCL)", "assay": "JULIET (NCT02445248) pivotal phase 2 trial of tisagenlecleucel in adult r/r DLBCL", "format": "in vivo, human", "excerpt": "This Example describes the JULIET (NCT02445248) clinical trial, which is a single-arm, open-label, multicenter, global, pivotal phase 2 trial of tisagenlecleucel, a chimeric antigen receptor (CAR)-T cell therapy targeting CD19, that has shown a high rate of durable complete responses (CR) and a manageable safety profile in adult patients with relapsed/refractory (r/r) diffuse large B-cell lymphoma (DLBCL). The primary objective was met at the interim analysis, with an overall response rate (ORR) of 59% (CR, 43%; partial response [PR], 16%). An updated analysis of the JULIET trial is presented herein with 19 months of follow-up, an additional 5 months since the previous report.\nThe primary endpoint was ORR (CR+PR) per independent review committee. Efficacy results are reported for patients in the main cohort with ≥3 months follow-up or earlier discontinuation; safety is reported for all infused patients.\nAt data cutoff (21 May 2018), 167 patients were enrolled and 115 were infused (99 with US-manufactured [main cohort] and 16 with EU-manufactured [cohort A] tisagenlecleucel) with a single dose of tisagenlecleucel (median, 3.0×10^8 [range, 0.1-6.0×10^8] CAR19-positive viable T cells). 90% of patients received bridging therapy and 93% received lymphodepleting chemotherapy. Median time from infusion to data cutoff was 19.3 months. Median age was 56 years (range, 22-76); 23% were ≥65 years. At study entry, 77% of infused patients had stage III/IV disease, 17% had double/triple hits in MYC/BCL2/BCL6. 55% and 43% had germinal center and activated B-cell molecular subtypes, respectively. 51% of patients had received ≥3 prior lines of antineoplastic therapy (range, 1-6); 49% had undergone a prior ASCT. All 99 patients in the main cohort had ≥3 months of follow-up or discontinued earlier and were evaluable for efficacy. ORR was 54% (95% CI, 43%-64%) with 40% CR and 13% PR. ORR was consistent across prognostic subgroups (including prior ASCT and double/triple-hit lymphoma) Median duration of response (DOR) was not reached; the probability of being relapse-free was 66% (95% CI, 51%-78%) at 6 months and 64% (95% CI, 48%-76%) at 12 months. DOR was similar by age group (≥ vs <65y) and by relapsed or refractory status (Figure). Median OS among all infused patients was 11.1 months (95% CI, 6.6-NE); OS probability at month 12, 48% (95% CI, 38%-57%; max follow-up, 29 months). No patients proceeded to allogeneic/ASCT while in remission."}},
  "data": [
    {"compound": "C=CC(=O)N1CCC[C@@H](n2nc(-c3ccc(Oc4ccccc4)cc3)c3c(N)ncnc32)C1", "note": "[ibrutinib, 1-[(3R)-3-[4-Amino-3-(4-phenoxyphenyl)-1H-pyrazolo[3,4-d]pyrimidin-1-yl]piperidin-1-yl]prop-2-en-1-one]", "values": [
      {"measurement": "CART19-mediated CRS", "setting": "MCL", "value": "reduced the CART19-mediated CRS"},
      {"measurement": "survival of the mice", "setting": "MCL", "value": "prolonged survival"}
    ]},
    {"compound": "tisagenlecleucel", "values": [
      {"measurement": "Median OS", "setting": "[1]; all infused patients, 95% CI 6.6-NE", "value": 11.1, "unit": "months"},
      {"measurement": "probability of being relapse-free", "setting": "[1]; at 6 months, 95% CI 51%-78%", "value": 66, "unit": "%"},
      {"measurement": "probability of being relapse-free", "setting": "[1]; at 12 months, 95% CI 48%-76%", "value": 64, "unit": "%"},
      {"measurement": "OS probability", "setting": "[1]; at month 12, 95% CI 38%-57%", "value": 48, "unit": "%"},
      {"measurement": "CR", "setting": "[1]; interim analysis", "value": 43, "unit": "%"},
      {"measurement": "overall response rate (ORR)", "setting": "[1]; interim analysis", "value": 59, "unit": "%"},
      {"measurement": "partial response [PR]", "setting": "[1]; interim analysis", "value": 16, "unit": "%"},
      {"measurement": "Median duration of response (DOR)", "setting": "[1]; updated analysis", "value": "not reached"},
      {"measurement": "ORR", "setting": "[1]; updated analysis, data cutoff 21 May 2018, 99 patients main cohort, 95% CI 43%-64%", "value": 54, "unit": "%"},
      {"measurement": "CR", "setting": "[1]; updated analysis, main cohort", "value": 40, "unit": "%"},
      {"measurement": "PR", "setting": "[1]; updated analysis, main cohort", "value": 13, "unit": "%"}
    ]}
  ]
}
